Here are results for 16 compounds from US11020395B2, “Cycloalkyl substituted triazole compounds as agonists of the APJ receptor” (AMGEN INC., priority 2016, dated 2021).

pEC50: −log10 of the molar value.

In the test the target is human APJ receptor (Homo sapiens (Human), UniProt P35414). Kind of test: [35S]GTPγS binding assay on membranes from CHO cells stably expressing human APJ receptor. The class given is biochemical. The following applies: [35S]GTPγS SPA, read-out: Activity hAPJ SPA EC50 IP. The method in brief:
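Agonist-stimulated [35S]GTPγS binding measured on membranes of a stable human APJ CHO line, 90 min at room temperature, with GDP, MgCl2 and NaCl levels optimized beforehand. Means of independent runs fitted by non-linear regression to give EC50.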

Sequence of human APJ receptor (P35414 whole entry): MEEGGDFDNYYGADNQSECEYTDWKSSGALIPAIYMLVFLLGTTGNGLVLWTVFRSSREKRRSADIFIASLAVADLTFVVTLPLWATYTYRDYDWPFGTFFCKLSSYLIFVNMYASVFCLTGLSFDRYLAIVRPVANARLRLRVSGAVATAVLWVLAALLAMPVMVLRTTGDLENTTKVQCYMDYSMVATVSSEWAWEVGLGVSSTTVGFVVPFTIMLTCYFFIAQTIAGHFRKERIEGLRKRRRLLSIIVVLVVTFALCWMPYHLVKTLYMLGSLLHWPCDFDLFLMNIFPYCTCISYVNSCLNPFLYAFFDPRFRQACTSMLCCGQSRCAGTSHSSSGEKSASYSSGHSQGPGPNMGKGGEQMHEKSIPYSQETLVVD

Usually pEC50 stands for the negative decadic logarithm of the EC50, by convention in mol/L. As for `COc1ncnc(OC)c1-n1c(NS(=O)(=O)[C@@H](C)[C@H](OC)c2ncc(Cl)cn2)nnc1[C@H]1CC[C@@H](OC)CC1` (single isomer, unassigned) [Example 174.0, (1R,2S)-1-(5-chloropyrimidin-2-yl)-N-(4-(4,6-dimethoxypyrimidin-5-yl)-5-((1s,4R)-4-methoxycyclohexyl)-4H-1,2,4-triazol-3-yl)-1-methoxypropane-2-sulfonamide or (1R,2S)-1-(5-chloropyrimidin-2-yl)-N-(4-(4,6-dimethoxypyrimidin-5-yl)-5-((1r,4S)-4-methoxycyclohexyl)-4H-1,2,4-triazol-3-yl)-1-methoxypropane-2-sulfonamide], the pEC50 is 5.92. As for `COc1ncnc(OC)c1-n1c(NS(=O)(=O)[C@@H](C)[C@H](OC)c2ncc(Cl)cn2)nnc1[C@H]1CC1(F)F` (single isomer, unassigned) [Example 100.0, (1R,2S)-1-(5-chloropyrimidin-2-yl)-N-(5-((R)-2,2-difluorocyclopropyl)-4-(4,6-dimethoxypyrimidin-5-yl)-4H-1,2,4-triazol-3-yl)-1-methoxypropane-2-sulfonamide or (1R,2S)-1-(5-chloropyrimidin-2-yl)-N-(5-((S)-2,2-difluorocyclopropyl)-4-(4,6-dimethoxypyrimidin-5-yl)-4H-1,2,4-triazol-3-yl)-1-methoxypropane-2-sulfonamide], the pEC50 was 6.85.

Regarding `COc1ncnc(OC)c1-n1c(NS(=O)(=O)[C@@H](C)[C@H](OC)c2ncc(Cl)cn2)nnc1[C@H]1C[C@](C)(F)C1` (single isomer, unassigned) [Example 237.0, (1R,2S)-1-(5-chloropyrimidin-2-yl)-N-(4-(4,6-dimethoxypyrimidin-5-yl)-5-((1s,3S)-3-fluoro-3-methylcyclobutyl)-4H-1,2,4-triazol-3-yl)-1-methoxypropane-2-sulfonamide or (1R,2S)-1-(5-chloropyrimidin-2-yl)-N-(4-(4,6-dimethoxypyrimidin-5-yl)-5-((1r,3S)-3-fluoro-3-methylcyclobutyl)-4H-1,2,4-triazol-3-yl)-1-methoxypropane-2-sulfonamide], the pEC50 is 7.52. Under `CO[C@H](c1ncc(Cl)cn1)[C@H](C)S(=O)(=O)Nc1nnc(C2CCC2)n1C(C)C` [Example 128.0] stands 6.48; under `COc1cccc(OC)c1-n1c(NS(=O)(=O)[C@@H](C)[C@@H](OC(C)C)c2ncc(C)cn2)nnc1[C@@H]1CCC(=O)C1` (single isomer, unassigned) [Example 230.0, (1S,2S)-N-(4-(2,6-dimethoxyphenyl)-5-((R)-3-oxocyclopentyl)-4H-1,2,4-triazol-3-yl)-1-isopropoxy-1-(5-methylpyrimidin-2-yl)propane-2-sulfonamide or (1S,2S)-N-(4-(2,6-dimethoxyphenyl)-5-((S)-3-oxocyclopentyl)-4H-1,2,4-triazol-3-yl)-1-isopropoxy-1-(5-methylpyrimidin-2-yl)propane-2-sulfonamide], 6.72. With `COc1ncnc(OC)c1-n1c(NS(=O)(=O)[C@@H](C)[C@H](OC)c2ncc(Cl)cn2)nnc1[C@H]1C[C@@H](C(F)(F)F)C1` (single isomer, unassigned) [Example 177.0, (1R,2S)-1-(5-chloropyrimidin-2-yl)-N-(4-(4,6-dimethoxypyrimidin-5-yl)-5-((1s,3R)-3-(trifluoromethyl)cyclobutyl)-4H-1,2,4-triazol-3-yl)-1-methoxypropane-2-sulfonamide or (1R,2S)-1-(5-chloropyrimidin-2-yl)-N-(4-(4,6-dimethoxypyrimidin-5-yl)-5-((1r,3S)-3-(trifluoromethyl)cyclobutyl)-4H-1,2,4-triazol-3-yl)-1-methoxypropane-2-sulfonamide], the pEC50 is 7.64. The figure for `COc1cccc(OC)c1-n1c(NS(=O)(=O)[C@@H](C)[C@H](OC)c2ncc(Cl)cn2)nnc1[C@H]1CC(=O)C1(C)C` (single isomer, unassigned) [Example 197.0, (1R,2S)-1-(5-chloropyrimidin-2-yl)-N-(4-(2,6-dimethoxyphenyl)-5-((R)-2,2-dimethyl-3-oxocyclobutyl)-4H-1,2,4-triazol-3-yl)-1-methoxypropane-2-sulfonamide or (1R,2S)-1-(5-chloropyrimidin-2-yl)-N-(4-(2,6-dimethoxyphenyl)-5-((S)-2,2-dimethyl-3-oxocyclobutyl)-4H-1,2,4-triazol-3-yl)-1-methoxypropane-2-sulfonamide] is 6.06; for `COc1ncnc(OC)c1-n1c(NS(=O)(=O)[C@@H](C)[C@H](OC)c2ncc(Cl)cn2)nnc1[C@H]1CC[C@@H](F)CC1` (single isomer, unassigned) [Example 176.0, (1R,2S)-1-(5-chloropyrimidin-2-yl)-N-(4-(4,6-dimethoxypyrimidin-5-yl)-5-((1s,4R)-4-fluorocyclohexyl)-4H-1,2,4-triazol-3-yl)-1-methoxypropane-2-sulfonamide or (1R,2S)-1-(5-chloropyrimidin-2-yl)-N-(4-(4,6-dimethoxypyrimidin-5-yl)-5-((1r,4S)-4-fluorocyclohexyl)-4H-1,2,4-triazol-3-yl)-1-methoxypropane-2-sulfonamide] it is 7.77.

For the compound `COc1ncnc(OC)c1-n1c(NS(=O)(=O)[C@@H](C)[C@H](OC)c2ncc(Cl)cn2)nnc1[C@H]1CC[C@@H](C(F)F)CC1` (single isomer, unassigned) [Example 144.0, (1R,2S)-1-(5-chloro-2-pyrimidinyl)-N-(5-(cis-4-(difluoromethyl)cyclohexyl)-4-(4,6-dimethoxy-5-pyrimidinyl)-4H-1,2,4-triazol-3-yl)-1-methoxy-2-propanesulfonamide or (1R,2S)-1-(5-chloro-2-pyrimidinyl)-N-(5-(trans-4-(difluoromethyl)cyclohexyl)-4-(4,6-dimethoxy-5-pyrimidinyl)-4H-1,2,4-triazol-3-yl)-1-methoxy-2-propanesulfonamide], the pEC50 was 6.21. In the case of `COc1ncnc(OC)c1-n1c(NS(=O)(=O)[C@@H](C)[C@H](OC)c2ncc(Cl)cn2)nnc1C1CC2(CC2)C1` [Example 183.0, (1R,2S)-1-(5-chloro-2-pyrimidinyl)-N-(4-(4,6-dimethoxy-5-pyrimidinyl)-5-(spiro[2.3]hexan-5-yl)-4H-1,2,4-triazol-3-yl)-1-methoxy-2-propanesulfonamide], the pEC50 was 8.85. With `COc1cccc(OC)c1-n1c(NS(=O)(=O)[C@@H](C)[C@H](OC)c2ncc(Cl)cn2)nnc1[C@H]1C[C@H](F)C1` (single isomer, unassigned) [Example 151.0, (1R,2S)-1-(5-chloropyrimidin-2-yl)-N-(4-(2,6-dimethoxyphenyl)-5-((1r,3S)-3-fluorocyclobutyl)-4H-1,2,4-triazol-3-yl)-1-methoxypropane-2-sulfonamide or (1R,2S)-1-(5-chloropyrimidin-2-yl)-N-(4-(2,6-dimethoxyphenyl)-5-((1r,3R)-3-fluorocyclobutyl)-4H-1,2,4-triazol-3-yl)-1-methoxypropane-2-sulfonamide], the pEC50 was 8.27. For the compound `COc1cccc(OC)c1-n1c(NS(=O)(=O)[C@@H](C)[C@@H](OC(C)C)c2ncc(C)cn2)nnc1[C@@H]1CCC(=O)C1` (single isomer, unassigned) [Example 229.0, (1S,2S)-N-(4-(2,6-dimethoxyphenyl)-5-((R)-3-oxocyclopentyl)-4H-1,2,4-triazol-3-yl)-1-isopropoxy-1-(5-methylpyrimidin-2-yl)propane-2-sulfonamide or (1S,2S)-N-(4-(2,6-dimethoxyphenyl)-5-((S)-3-oxocyclopentyl)-4H-1,2,4-triazol-3-yl)-1-isopropoxy-1-(5-methylpyrimidin-2-yl)propane-2-sulfonamide], the pEC50 is 7.52. On to `COc1cccc(OC)c1-n1c(NS(=O)(=O)[C@@H](C)[C@H](OC)c2ncc(Cl)cn2)nnc1[C@H]1C[C@H](C(F)(F)F)C1` (single isomer, unassigned) [Example 149.0, (1R,2S)-1-(5-chloropyrimidin-2-yl)-N-(4-(2,6-dimethoxyphenyl)-5-((1r,3S)-3-(trifluoromethyl)cyclobutyl)-4H-1,2,4-triazol-3-yl)-1-methoxypropane-2-sulfonamide or (1R,2S)-1-(5-chloropyrimidin-2-yl)-N-(4-(2,6-dimethoxyphenyl)-5-((1s,3R)-3-(trifluoromethyl)cyclobutyl)-4H-1,2,4-triazol-3-yl)-1-methoxypropane-2-sulfonamide], for which the negative-log EC50 (pEC50) is 8.38. Turning to `COc1ncnc(OC)c1-n1c(NS(=O)(=O)[C@@H](C)[C@H](OC)c2ncc(Cl)cn2)nnc1[C@H]1CC[C@@H](C(F)(F)F)CC1` (single isomer, unassigned) [Example 172.0, (1R,2S)-1-(5-chloropyrimidin-2-yl)-N-(4-(4,6-dimethoxypyrimidin-5-yl)-5-((1s,4R)-4-(trifluoromethyl)cyclohexyl)-4H-1,2,4-triazol-3-yl)-1-methoxypropane-2-sulfonamide or (1R,2S)-1-(5-chloropyrimidin-2-yl)-N-(4-(4,6-dimethoxypyrimidin-5-yl)-5-((1r,4S)-4-(trifluoromethyl)cyclohexyl)-4H-1,2,4-triazol-3-yl)-1-methoxypropane-2-sulfonamide], the pEC50 was 6.43. Consider “(1R,2S)-1-(5-chloropyrimidin-2-yl)-N-(4-(4,6-dimethoxypyrimidin-5-yl)-5-((R)-spiro[2.2]pentan-1-yl)-4H-1,2,4-triazol-3-yl)-1-methoxypropane-2-sulfonamide or (1R,2S)-1-(5-chloropyrimidin-2-yl)-N-(4-(4,6-dimethoxypyrimidin-5-yl)-5-((S)-spiro[2.2]pentan-1-yl)-4H-1,2,4-triazol-3-yl)-1-methoxypropane-2-sulfonamide [Example 106.0]”, for which the pEC50 is 7.72. With `COc1cccc(OC)c1-n1c(NS(=O)(=O)[C@@H](C)[C@H](OC)c2ncc(Cl)cn2)nnc1C1CCC1` [Example 93.0, (1R,2S)-1-(5-chloropyrimidin-2-yl)-N-(5-cyclobutyl-4-(2,6-dimethoxyphenyl)-4H-1,2,4-triazol-3-yl)-1-methoxypropane-2-sulfonamide], the pEC50 is 9.04.
